From patent US8986737B2, “Antibiotic microspheres for treatment and prevention of osteomyelitis and enhancement of bone regrowth” (Wm. Marsh Rice University, priority 2002, dated 2015)
≈ marks a conversion by molar mass, not a printed value. Where two headings read alike, the source gives them in different places.

System: S. aureus UAMS-1 (ATCC 49230)
Experiment: MIC and MBC determination by standard dilution methods
Assay type: cell-based, Staphylococcus aureus
Protocol: The strain of S. aureus used in this study, UAMS-1, was isolated from a patient with osteomyelitis and deposited at the American Type Culture Collection as strain ATCC 49230. The bacteria were prepared from overnight cultures grown in tryptic soy broth at 37° C. with aeration. Cells were harvested by centrifugation, washed with sterile physiological saline, and resuspended to a final concentration of 2×10^8 CFU/ml (OD of 60% transmittance). Cell suspensions were prepared on the day of surgery and held on ice until implanted.
Minimum inhibitory concentration (MIC) and minimum bactericidal concentration (MBC) for the two antibiotics tested, tobramycin and cefazolin, were determined by standard dilution methods published by the National Committee for Clinical Laboratory Standards. Briefly, S. aureus cells were grown and diluted to 0.5 McFarland turbidity standard, approximately 2×10^8 cells/ml. The cells were mixed with either of the two antibiotics tested, at concentrations ranging from 2 μg/ml to 64 μg/ml. The following day, the cultures were examined for turbidity to allow determination of MIC values. After this, sample clear cultures were plated to determine the MBC, and colonies counts were done the next day.
Minimum inhibitory concentration and minimum bactericidal concentration for tobramycin was determined as previously described above, by standard dilution methods published by the National Committee for Clinical Laboratory Standards.

[1] = Staphylococcus aureus, ATCC49230, read-out: MBC
[2] = Staphylococcus aureus, ATCC49230, read-out: MIC

NC[C@H]1O[C@H](O[C@H]2[C@H](O)[C@@H](O[C@H]3O[C@H](CO)[C@@H](O)[C@H](N)[C@H]3O)[C@H](N)C[C@@H]2N)[C@H](N)C[C@@H]1O [Tobramycin]
MBC: 16 µg/mL (≈ 34.2 µM) | MIC: 4 to 8 µg/mL | MBC [1]: 16 µg/mL (≈ 34.2 µM) | MIC [2]: 4 to 8 µg/mL (≈ 8.56 to 17.1 µM)

Cc1nnc(SCC2=C(C(=O)O)N3C(=O)[C@@H](NC(=O)Cn4cnnn4)[C@H]3SC2)s1 [Cefazolin]
MBC [1]: 32 µg/mL (≈ 70.4 µM) | MIC [2]: 2 µg/mL (≈ 4.4 µM)
